The test system of the assay is Human peripheral blood mononuclear cells. The assay is described as follows: Cell proliferation tracking by dye dilution, flow cytometry (Biological Application Example 1). The assay is classed as cell-based. Conditions: 1 μM staining; for loss of fluorescence over 24 hours: initial 24 hours after staining; for fluorescence histogram from stimulated cells / fluorescence intensity and coefficient of variation from unstimulated cells: six days after staining. On the procedure: Human peripheral blood mononuclear cells were isolated from whole blood using a Ficoll density gradient, then washed and resuspended in phosphate buffered saline (DPBS) at a concentration of 10^6/mL. The general procedure used is as follows: • 1. Dilute 8 mL of whole blood into 8 mL of 1×PBS and mix well. • 2. Add 6 mL Ficoll-Paque Plus to a 15-mL centrifuge tube, then layer 8 mL diluted whole blood on top. • 3. Centrifuge 30 min at 400 g, then carefully remove the lymphocyte layer. • 4. Resuspend cells in 25 mL DPBS buffer in a 50-mL conical tube. • 5. Spin tube for 5 min at 200 g, pour off supernatant and resuspend in 25 mL DPBS. • 6. Repeat wash step and resuspend in 300 μL of Isolation Buffer. • 7. Count cells on cellometer; adjust cell concentration to 10^6 cells/mL
Compound 2, Compound 6, Compound 7, and Carboxyfluorescein Diacetate Succinimidyl ester (CFSE) were each dissolved in anhydrous dimethylsulfoxide to a concentration of 1 mM. Aliquots, 4-mL, of cells were then stained with 4 μL of Compound 2, Compound 6, Compound 7, or CFSE for final staining concentrations of 1 μM. Cells were incubated with agitation at room temperature for 20 minutes. Then 2 mL of heat-inactivated Fetal Bovine Serum (FBS) were added, followed by 5 more minutes of incubation. Cells were washed twice with DPBS+10% FBS and resuspended in 4 mL of OpTmizer T-Cell Expansion Buffer (GIBCO) containing 2 mM L-glutamine, and 100,000 units penicillin and 100 mg streptomycin per liter. Aliquots (1-mL) of cells stained with Compound 2, Compound 6, Compound 7, or CFSE, and a 1-ml aliquot of unstained cells were then dispensed into a 24-well polystyrene plate and incubated at 37° C. and 5% CO2 for 24 hours. One of the following four stimulus conditions were then applied individually to the cells: i) 200 ng anti-CD3 (2 μL), incubated on ice for 30 min, then transferred to culture plate and add 100 ng iL-2 per mL of culture media, ii) 5 μg/mL Concanavalin A (5 μL of a 1 mg/mL solution), iii) 75 μL CD3/CD28 T cell expander beads, or iv) no stimulus. The cells were then incubated for 72 additional hours at 37° C. and 5% CO2. Aliquots (500-μL) of cells from each treatment were analyzed immediately following staining, and at 24 hours and six days after staining.
Aliquots (500 μL) of cells were washed and resuspended in PBS, stained with mouse anti-human CD3 or CD8 R-phycoerythrin primary antibody conjugates for 15 minutes, then washed and stained with SYTOX® Red Dead Cell Stain for 5 minutes. Cells were then run through the Becton Dickinson (BD) LSRII Flow Cytometer. Fluorescence was collected using three lasers: the 405 nm excitation laser with 450/50 bandpass emission filter, the 488 nm excitation laser with 585/42 bandpass emission filter, and the 633 nm excitation laser with 660/20 bandpass emission filter. A gating strategy was employed to limit analysis to only the cells of interest. Cells were gated first on SYTOX® Red Dead Cell Stain negative (live) cells, then on R-phycoerythrin positive cells (CD3+ or CD8+ positive). […] CountBright™ Absolute Counting Beads were evaluated in each fluorescence histogram prior to each run to account for day-to-day instrument variations.
Background: Flow cytometry measures light scatter and fluorescence of single cells or particles in a stream.

For `CC(=O)Oc1cc2oc(=O)c(C(=O)ON3C(=O)CCC3=O)cc2cc1Cl` [Compound 2], the “loss of fluorescence over 24 hours” value was “very little loss of fluorescence”; the “fluorescence histogram from stimulated cells” value (“fluorescence histogram” below) is given as “distinct peaks corresponding to each generation of cells”; the “fluorescence intensity and coefficient of variation from unstimulated cells” value (from here on “fluorescence intensity and coefficient”) is listed as “little change from initial staining”.
For `CC(=O)Oc1cc2oc(=O)c(C(=O)N3CCC(C(=O)ON4C(=O)CCC4=O)CC3)cc2cc1Cl` [Compound 6], the “loss of fluorescence over 24 hours” value is recorded as “very little loss of fluorescence”; the “fluorescence histogram” value is recorded as “distinct peaks corresponding to each generation of cells”; the “fluorescence intensity and coefficient” value is recorded as “little change from initial staining”.
Taken in the same sequence, the figures for `CC(=O)OCOc1cc2oc(=O)c(C(=O)N3CCC(C(=O)ON4C(=O)CCC4=O)CC3)cc2cc1Cl` [Compound 7] were “very little loss of fluorescence”, “distinct peaks corresponding to each generation of cells” and “little change from initial staining”.
Turning to “Carboxyfluorescein Diacetate Succinimidyl ester [CFSE, reference compound]”, the “loss of fluorescence over 24 hours” value is given as “moderate fluorescence loss”; the “fluorescence histogram” value is reported as “distinct peaks corresponding to each generation of cells”; the “fluorescence intensity and coefficient” value is “little change from initial staining”.
